Laboratory results from patent US11512268B2, “Storage-stable enzyme preparations, their production and use” (BASF SE, priority 2017, dated 2022).

Tests used:
[1] = target: T1, Lipolase (Thermomyces lanuginosus, UniProt O59952); test: storage stability of lipase (Lipolase activity, pNitrophenol-valerate substrate) in liquid formulations at 37° C.; format: biochemical, Thermomyces lanuginosa; details: Lipolase 0.4 wt %, storage at 37° C.
T1 construct: purchased Sigma-Aldrich
T1 sequence (O59952 23-291): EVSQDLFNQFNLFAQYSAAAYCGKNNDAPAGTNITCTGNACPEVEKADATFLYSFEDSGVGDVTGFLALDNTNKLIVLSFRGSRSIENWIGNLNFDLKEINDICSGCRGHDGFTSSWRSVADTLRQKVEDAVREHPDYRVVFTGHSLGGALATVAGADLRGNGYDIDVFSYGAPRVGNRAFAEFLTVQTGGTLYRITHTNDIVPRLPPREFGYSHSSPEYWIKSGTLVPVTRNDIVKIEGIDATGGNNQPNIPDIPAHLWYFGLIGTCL
Experimental: (§1) The storage stability of Lipase and Protease in water was assessed at 37° C.
(§2) Base test formulations were manufactured by making base formulations I to VI by mixing the components according to Table 1.
(§3) The respective salt (component (a)) or comparative compound was added, if applicable, to the respective base formulation in amounts as indicated in Table 1.
(§4) The amount of enzyme as provided in Table 1 refers to active protein. Either lipase or protease was added, depending on which enzyme activity was measured.
(§5) Lipolase® 100 L (CAS-No. 9001-62-1, EC-No. 232-619-9) was purchased from Sigma-Aldrich. Savinase® 16.0 L (CAS-No. 9014-01-1, EC-No. 232-752-2) was purchased from Sigma-Aldrich.
Lipolase activity at certain points in time as indicated in Table 2 was be determined by employing pNitrophenol-valerate (2.4 mM pNP-C5 in 100 mM Tris pH 8.0, 0.01% Triton X100) as a substrate. The absorption was measured at 20° C. every 30 seconds over 5 minutes at 405 nm. The slope (absorbance increase at 405 nm per minute) of the time dependent absorption-curve is directly proportional to the activity of the lipase.
The lipolytic activity values provided in Table 2 were calculated referring to the 100% value determined in the reference formulation at the time 0.
(§6) The nomenclature of formulations is as follows: the Roman number before the full stop characterizes the base formulation, the Arabian number the type of salt (A.# inventive salt (component (a)); C-(A.#) comparative compound). Zero (“0”): no salt, but diethylene glycol.

[2] = target: T2, Savinase (Lederbergia lenta, UniProt P29600); test: storage stability of protease (Savinase activity, Suc-AAPF-pNA substrate) in liquid formulations at 37° C.; format: biochemical; details: Savinase 16.0 L 0.5 wt %, storage at 37° C.
T2 construct: purchased Sigma-Aldrich
T2 sequence (P29600 1-269): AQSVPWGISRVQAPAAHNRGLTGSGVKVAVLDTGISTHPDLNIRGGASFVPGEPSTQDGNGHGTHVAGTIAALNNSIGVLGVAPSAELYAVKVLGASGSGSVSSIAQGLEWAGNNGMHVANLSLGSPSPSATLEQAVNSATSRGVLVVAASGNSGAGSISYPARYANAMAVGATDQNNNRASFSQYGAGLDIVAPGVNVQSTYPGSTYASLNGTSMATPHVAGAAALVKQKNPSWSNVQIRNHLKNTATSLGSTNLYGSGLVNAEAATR
Experimental: as §1, §2, §3, §4, §5
Savinase activity at certain points in time as indicated in Table 3 was be determined by employing Succinyl-Ala-Ala-Pro-Phe-p-nitroanilide (Suc-AAPF-pNA, short AAPF) as substrate. pNA is cleaved from the substrate molecule by proteolytic cleavage, resulting in release of yellow color of free pNA which was determined by measuring OD405. Measurement were done at 20° C.
The proteolytic activity values provided in Table 3 were calculated referring to the 100% value determined in the reference formulation at the time 0.
as §6

[3] = base formulation I., component (a) 2.5 wt %, 1 d
[4] = base formulation I., component (a) 2.5 wt %, 3 d
[5] = base formulation I., component (a) 2.5 wt %, 6 d
[6] = base formulation I., component (a) 2.5 wt %, 10 d
[7] = base formulation I., component (a) 2.5 wt %, 15 d
[8] = base formulation I., component (a) 2.5 wt %, 20 d
[9] = base formulation I., component (a) 2.5 wt %, 25 d
[10] = base formulation I., component (a) 2.5 wt %, 30 d

SMILES: C[N+](C)(C)CCO.[Cl-] [C-(A.15), Choline chloride]
- lipase activity [1, 3]: 95%
- lipase activity [1, 4]: 80%
- lipase activity [1, 5]: 67%
- lipase activity [1, 6]: 55%
- lipase activity [1, 7]: 41%
- lipase activity [1, 8]: 32%
- lipase activity [1, 9]: 22%
- lipase activity [1, 10]: 20%
- lipase activity ([1]; base formulation II., component (a) 2.5 wt %, 1 d): 95%
- lipase activity ([1]; base formulation II., component (a) 2.5 wt %, 3 d): 82%
- lipase activity ([1]; base formulation II., component (a) 2.5 wt %, 6 d): 65%
- lipase activity ([1]; base formulation II., component (a) 2.5 wt %, 10 d): 56%
- lipase activity ([1]; base formulation II., component (a) 2.5 wt %, 15 d): 40%
- lipase activity ([1]; base formulation II., component (a) 2.5 wt %, 20 d): 33%
- lipase activity ([1]; base formulation II., component (a) 2.5 wt %, 25 d): 26%
- lipase activity ([1]; base formulation II., component (a) 2.5 wt %, 30 d): 22%
- lipase activity ([1]; base formulation IV., component (a) 4.0 wt %, 1 d): 95%
- lipase activity ([1]; base formulation IV., component (a) 4.0 wt %, 3 d): 82%
- lipase activity ([1]; base formulation IV., component (a) 4.0 wt %, 6 d): 72%
- lipase activity ([1]; base formulation IV., component (a) 4.0 wt %, 10 d): 59%
- lipase activity ([1]; base formulation IV., component (a) 4.0 wt %, 15 d): 44%
- lipase activity ([1]; base formulation IV., component (a) 4.0 wt %, 20 d): 36%
- lipase activity ([1]; base formulation IV., component (a) 4.0 wt %, 25 d): 30%
- lipase activity ([1]; base formulation IV., component (a) 4.0 wt %, 30 d): 23%
- lipase activity ([1]; base formulation V., component (a) 4.0 wt %, 1 d): 95%
- lipase activity ([1]; base formulation V., component (a) 4.0 wt %, 3 d): 86%
- lipase activity ([1]; base formulation V., component (a) 4.0 wt %, 6 d): 74%
- lipase activity ([1]; base formulation V., component (a) 4.0 wt %, 10 d): 63%
- lipase activity ([1]; base formulation V., component (a) 4.0 wt %, 15 d): 54%
- lipase activity ([1]; base formulation V., component (a) 4.0 wt %, 20 d): 41%
- lipase activity ([1]; base formulation V., component (a) 4.0 wt %, 25 d): 39%
- lipase activity ([1]; base formulation V., component (a) 4.0 wt %, 30 d): 30%
- protease activity [2, 3]: 92%
- protease activity [2, 4]: 85%
- protease activity [2, 5]: 64%
- protease activity [2, 6]: 47%
- protease activity [2, 7]: 39%
- protease activity [2, 8]: 31%
- protease activity [2, 9]: 22%
- protease activity [2, 10]: 8%
- protease activity ([2]; base formulation I., component (a) 2.5 wt %, T0): 98%
- protease activity ([2]; base formulation VI., component (a) 4.0 wt %, 1 d): 90%
- protease activity ([2]; base formulation VI., component (a) 4.0 wt %, 3 d): 84%
- protease activity ([2]; base formulation VI., component (a) 4.0 wt %, 6 d): 66%
- protease activity ([2]; base formulation VI., component (a) 4.0 wt %, 10 d): 47%
- protease activity ([2]; base formulation VI., component (a) 4.0 wt %, 15 d): 36%
- protease activity ([2]; base formulation VI., component (a) 4.0 wt %, 20 d): 29%
- protease activity ([2]; base formulation VI., component (a) 4.0 wt %, 25 d): 20%
- protease activity ([2]; base formulation VI., component (a) 4.0 wt %, 30 d): 10%
- protease activity ([2]; base formulation VI., component (a) 4.0 wt %, T0): 85%
